The target in experiment [1] is T1, Retinoic acid receptor gamma (Homo sapiens) (UniProt P13631).
T1 sequence (whole entry): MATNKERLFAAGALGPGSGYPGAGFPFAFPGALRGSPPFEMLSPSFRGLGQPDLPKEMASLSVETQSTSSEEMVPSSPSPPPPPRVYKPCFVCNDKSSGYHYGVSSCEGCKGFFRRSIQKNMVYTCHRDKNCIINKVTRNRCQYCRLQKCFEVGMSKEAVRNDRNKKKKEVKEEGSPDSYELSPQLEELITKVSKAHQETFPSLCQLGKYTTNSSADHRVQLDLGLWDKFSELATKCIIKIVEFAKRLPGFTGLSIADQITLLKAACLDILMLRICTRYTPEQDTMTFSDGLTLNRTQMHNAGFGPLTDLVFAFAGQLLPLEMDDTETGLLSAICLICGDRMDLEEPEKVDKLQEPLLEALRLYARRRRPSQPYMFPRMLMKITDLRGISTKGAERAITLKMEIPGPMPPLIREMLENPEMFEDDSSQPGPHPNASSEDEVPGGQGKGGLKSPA
Put plainly: Percent transcriptional activation relative to ATRA in CV-1 cells expressing Retinoic acid receptor RAR gamma. The class given is functional, cell-based.

Experiment [2] deals with T2, Retinoic acid receptor RXR-gamma (Homo sapiens, UniProt P48443).
T2 sequence (P48443 whole entry): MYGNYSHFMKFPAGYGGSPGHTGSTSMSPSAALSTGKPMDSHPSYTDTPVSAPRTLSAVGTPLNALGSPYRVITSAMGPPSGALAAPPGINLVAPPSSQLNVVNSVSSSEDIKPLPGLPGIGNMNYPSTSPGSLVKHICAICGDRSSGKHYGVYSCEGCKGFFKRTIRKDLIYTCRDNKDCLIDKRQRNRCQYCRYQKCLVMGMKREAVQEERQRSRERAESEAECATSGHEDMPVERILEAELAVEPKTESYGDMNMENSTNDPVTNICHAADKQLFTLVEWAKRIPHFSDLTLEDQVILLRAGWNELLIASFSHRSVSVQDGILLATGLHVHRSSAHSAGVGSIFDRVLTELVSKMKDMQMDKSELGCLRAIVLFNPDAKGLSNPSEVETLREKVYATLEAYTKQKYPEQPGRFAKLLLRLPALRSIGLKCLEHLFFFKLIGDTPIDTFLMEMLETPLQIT
The experiment can be described thus: Binding affinity towards recombinantly expressed Retinoic acid receptor RXR-gamma in baculoviral system, by using 5 nM [3H]targretin in a competitive binding assay.

Experiment [3] has as its target T3, Retinoic acid receptor alpha (Homo sapiens) (UniProt P10276).
T3 sequence (whole entry): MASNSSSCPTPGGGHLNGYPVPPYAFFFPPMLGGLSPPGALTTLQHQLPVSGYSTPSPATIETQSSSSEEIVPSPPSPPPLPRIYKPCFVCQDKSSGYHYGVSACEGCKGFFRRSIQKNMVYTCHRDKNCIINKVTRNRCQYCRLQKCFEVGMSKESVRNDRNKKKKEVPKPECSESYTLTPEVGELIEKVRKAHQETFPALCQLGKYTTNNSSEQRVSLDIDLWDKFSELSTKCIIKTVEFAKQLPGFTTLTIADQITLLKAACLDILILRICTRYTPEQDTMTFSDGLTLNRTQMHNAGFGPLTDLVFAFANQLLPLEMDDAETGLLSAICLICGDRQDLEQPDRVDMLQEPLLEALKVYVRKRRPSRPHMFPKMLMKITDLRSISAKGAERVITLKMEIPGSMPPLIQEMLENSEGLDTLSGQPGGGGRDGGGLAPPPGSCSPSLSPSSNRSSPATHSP
The experiment can be described thus: Percent transcriptional activation relative to ATRA in CV-1 cells expressing Retinoic acid receptor RAR alpha. The class given is functional, cell-based.

Experiment [4] addresses T4, Retinoic acid receptor gamma (Homo sapiens, UniProt P13631).
T4 sequence (P13631 whole entry): T1 sequence (whole entry)
Put plainly: Inhibition of [3H]-ATRA binding to baculovirus expressed Retinoic acid receptor RAR gamma.

Experiment [5] addresses T5, Retinoic acid receptor RXR-beta (Homo sapiens, UniProt P28702).
T5 sequence (P28702 whole entry): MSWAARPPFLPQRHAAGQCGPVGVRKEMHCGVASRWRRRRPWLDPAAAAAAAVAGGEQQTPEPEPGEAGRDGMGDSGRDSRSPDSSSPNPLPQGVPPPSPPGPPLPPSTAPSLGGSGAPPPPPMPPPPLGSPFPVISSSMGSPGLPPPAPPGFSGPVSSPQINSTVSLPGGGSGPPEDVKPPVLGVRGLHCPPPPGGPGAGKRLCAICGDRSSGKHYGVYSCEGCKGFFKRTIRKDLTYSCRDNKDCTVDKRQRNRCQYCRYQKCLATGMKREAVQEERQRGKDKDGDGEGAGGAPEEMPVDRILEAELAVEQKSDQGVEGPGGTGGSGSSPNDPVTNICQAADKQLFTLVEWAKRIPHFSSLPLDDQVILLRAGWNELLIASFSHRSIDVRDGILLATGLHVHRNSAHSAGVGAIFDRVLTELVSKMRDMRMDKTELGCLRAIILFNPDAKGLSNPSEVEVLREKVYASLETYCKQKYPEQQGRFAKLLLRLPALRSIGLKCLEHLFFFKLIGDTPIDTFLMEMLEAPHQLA
The experiment can be described thus: Binding affinity towards recombinantly expressed Retinoic acid receptor RXR-beta in baculoviral system, by using 5 nM [3H]targretin in a competitive binding assay.

Experiment [6] has as its target T6, Retinoic acid receptor RXR-beta (Homo sapiens) (UniProt P28702).
T6 sequence (whole entry): T5 sequence (P28702 whole entry)
The experiment can be described thus: Percent transcriptional activation relative to ATRA in CV-1 cells expressing Retinoid X receptor RXR beta. The class given is functional, cell-based.

Experiment [7] deals with T7, Retinoic acid receptor RXR-alpha (Homo sapiens, UniProt P19793).
T7 sequence (P19793 whole entry): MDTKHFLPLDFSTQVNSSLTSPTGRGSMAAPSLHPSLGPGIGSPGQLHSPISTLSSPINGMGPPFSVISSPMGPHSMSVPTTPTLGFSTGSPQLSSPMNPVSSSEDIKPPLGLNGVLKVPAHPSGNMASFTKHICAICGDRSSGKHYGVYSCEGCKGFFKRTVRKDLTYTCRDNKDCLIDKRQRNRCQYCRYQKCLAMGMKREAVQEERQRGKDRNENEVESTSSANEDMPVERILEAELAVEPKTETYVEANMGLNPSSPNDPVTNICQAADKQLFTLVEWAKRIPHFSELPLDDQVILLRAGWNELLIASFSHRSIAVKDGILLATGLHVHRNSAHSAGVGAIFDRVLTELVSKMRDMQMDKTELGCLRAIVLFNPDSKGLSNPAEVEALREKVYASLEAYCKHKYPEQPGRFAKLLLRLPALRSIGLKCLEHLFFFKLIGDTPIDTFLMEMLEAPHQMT
Put plainly: Binding affinity towards recombinantly expressed Retinoic acid receptor RXR-alpha in baculoviral system, by using 5 nM [3H]targretin in a competitive binding assay.

The target of experiment [8] is T8, Retinoic acid receptor alpha (Homo sapiens, UniProt P10276).
T8 sequence (P10276 whole entry): T3 sequence (whole entry)
Put plainly: Inhibition of [3H]ATRA binding to baculovirus expressed Retinoic acid receptor RAR alpha.

Experiment [9] concerns the target T5, Retinoic acid receptor RXR-beta. Put plainly: Transcriptional activity was evaluated in CV-1 cells transfected with expression vector for Retinoic acid receptor RXR-beta. The class given is functional, cell-based.
The target of experiment [10] is T9, Retinoic acid receptor beta (Homo sapiens) (UniProt P10826).
T9 sequence (whole entry): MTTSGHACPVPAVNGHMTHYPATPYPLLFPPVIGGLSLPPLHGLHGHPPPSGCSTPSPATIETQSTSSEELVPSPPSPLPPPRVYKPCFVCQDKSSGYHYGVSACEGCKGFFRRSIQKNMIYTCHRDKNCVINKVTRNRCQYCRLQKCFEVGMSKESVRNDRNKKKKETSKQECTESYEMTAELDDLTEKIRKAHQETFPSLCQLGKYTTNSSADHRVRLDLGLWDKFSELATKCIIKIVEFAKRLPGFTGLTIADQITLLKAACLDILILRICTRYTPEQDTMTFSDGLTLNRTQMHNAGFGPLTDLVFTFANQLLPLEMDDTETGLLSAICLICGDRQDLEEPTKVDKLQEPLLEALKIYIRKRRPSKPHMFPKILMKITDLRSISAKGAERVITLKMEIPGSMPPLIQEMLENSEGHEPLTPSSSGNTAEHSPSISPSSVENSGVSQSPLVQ
Put plainly: Percent transcriptional activation relative to ATRA in CV-1 cells expressing Retinoic acid receptor RAR beta. The class given is functional, cell-based.

Experiment [11] addresses T2, Retinoic acid receptor RXR-gamma. Put plainly: Transcriptional activity was evaluated in CV-1 cells transfected with expression vector for Retinoic acid receptor RXR-gamma. The class given is functional, cell-based.
For experiment [12], the target named is T7, Retinoic acid receptor RXR-alpha. Put plainly: Transcriptional activity was evaluated in CV-1 cells transfected with expression vector for Retinoic acid receptor RXR-alpha. The class given is functional, cell-based.
Experiment [13] addresses T10, Retinoic acid receptor beta (Homo sapiens, UniProt P10826).
T10 sequence (P10826 whole entry): T9 sequence (whole entry)
The experiment can be described thus: Inhibition of [3H]ATRA binding to baculovirus expressed Retinoic acid receptor RAR beta.

As usually defined, the Ki is a dissociation constant, usually derived from enzyme kinetics or from competition with a known ligand. For orientation: EC50 means the concentration giving half of the maximal effect. For `CO/N=C(\c1ccc(C(=O)O)cc1)c1cc2c(cc1C)C(C)(C)CCC2(C)C`, the Efficacy turned out to be 2% in experiment [1], 2% in [3], 90% in [6] and 5% in experiment [10]. The inhibition constant Ki was 8 nM in experiment [2]; over 10000 nM in experiment [4]; 8 nM in experiment [5]; 9 nM in [7]; over 10000 nM in experiment [8]; over 10000 nM in [13]. In addition, the 50% effective concentration (EC50) in [9] was 10 nM; in experiment [11], 4 nM; in experiment [12], 5 nM.
